The values below come from US6734205B2, “Substituted guanidine derivatives” (Sumitomo Pharmaceuticals Company Limited, priority 1999, dated 2004).

What is called melting point is the temperature, or range, at which the solid turns liquid.

Where a name gives a salt, the structure may show the parent alone.

With `Cn1c(C(=O)NC(=N)N)cc2c(C(F)(F)F)cc(OCP(=O)(O)O)cc21` [Example 45, [[2-[[[amino(imino)methyl]-amino]carbonyl]-1-methyl-4-(trifluoromethyl)-1H-indol-6-yl]oxy]-methylphosphonic Acid], the melting point was 292 °C (dec.).

In the case of `Cn1c(C(=O)NC(=N)N)cc2c(C(F)(F)F)ccc(OCCCS(=O)(=O)O)c21` [Example 33, 3-[[2-[[[Amino(imino)methyl]amino]carbonyl]-1-methyl-4-(trifluoromethyl)-1H-indol-7-yl]oxy]-1-propanesulfonic Acid], the melting point was ≥ 272 °C (dec.).

Take `Cc1cc(CCP(=O)(O)O)cc2c1cc(C(=O)NC(=N)N)n2C` [Example 54, 2-[2-[[[Amino(imino)methyl]amino]carbonyl]-1,4-dimethyl-1H-indol-6-yl]ethylphosphonic Acid]: the melting point was 255 °C (dec.).

In the case of `Cn1c(C(=O)NC(=N)N)cc2cc(OS(=O)(=O)O)ccc21` (as salt: sulfate) [Example 6, 2-[[[Amino(imino)methyl]amino]carbonyl]-1-methyl-1H-indol-5-yl Hydrogen Sulfate], the melting point was 280 to 281 °C (dec.).

Turning to `Cc1ccc(OCC(=O)O)c2c1cc(C(=O)NC(=N)N)n2C` [Example 26, [[2-[[[Amino(imino)methyl]amino]carbonyl]-1,4-dimethyl-1H-indol-7-yl]oxy]acetic Acid], the melting point was 248 to 252 °C (dec.).

In turn, `Cn1c(C(=O)NC(=N)N)cc2c(Cl)ccc(OCP(=O)(O)O)c21` [Example 48, [[2-[[[Amino(imino)methyl]amino]carbonyl]-4-chloro-1-methyl-1H-indol-7-yl]oxy]methylphosphonic Acid] showed a melting point of 247 °C.

With `CS(=O)(=O)O.Cn1c(C(=O)NC(=N)N)cc2c(C(F)(F)F)cc(P(=O)(O)O)cc21`, the melting point was 286 °C (dec.).

Turning to `Br.Cn1c(C(=O)NC(=N)N)cc2c(C(F)(F)F)ccc(CCP(=O)(O)O)c21`, the melting point was 234 °C (dec.).

As to `Cn1c(C(=O)NC(=N)N)cc2c(Cl)ccc(OCC(=O)O)c21` [Example 24, [[2-[[[Amino(imino)methyl]amino]carbonyl]-4-chloro-1-methyl-1H-indol-7-yl]oxy]acetic Acid], the melting point is 210 to 225 °C (dec.).

In the case of `Cn1c(C(=O)NC(=N)N)cc2c(Cl)ccc(CCP(=O)(O)O)c21` [Example 53, 2-[2-[[[Amino(imino)methyl]amino]carbonyl]-4-chloro-1-methyl-1H-indol-7-yl]ethylphosphonic Acid], the melting point was 256 °C (dec.).

Consider `Cn1c(C(=O)NC(=N)N)cc2c(C(F)(F)F)ccc(OS(=O)(=O)O)c21` (as salt: sulfate) [Example 13, 2-[[[Amino(imino)methyl]amino]carbonyl]-1-methyl-4-(trifluoromethyl)-1H-indol-7-yl Hydrogen Sulfate], for which the melting point is 298 °C (dec.).

Take `Cn1c(C(=O)NC(=N)N)cc2c(Cl)cc(CCS(=O)(=O)O)cc21` [Example 41, 2-[2-[[[Amino(imino)methyl]amino]carbonyl]-4-chloro-1-methyl-1H-indol-6-yl]ethanesulfonic Acid]: the melting point is at least 300 °C.

As to `Cc1cccc2c1cc(C(=O)NC(=N)N)n2CCCS(=O)(=O)O` [Example 29, 3-[2-[[[Amino(imino)methyl]amino]carbonyl]-4-methyl-1H-indol-1-yl]-1-propanesulfonic Acid], the melting point was 298 °C (dec.).

As to `Cc1cc(CCS(=O)(=O)O)cc2c1cc(C(=O)NC(=N)N)n2C` [Example 42, 2-[2-[[[Amino(imino)methyl]amino]carbonyl]-1,4-dimethyl-1H-indol-6-yl]ethanesulfonic Acid], the melting point is ≥ 300 °C (dec.).

Consider `Cn1c(C(=O)NC(=N)N)cc2c(C(F)(F)F)ccc(CCS(=O)(=O)O)c21` [Example 40, 2-[2-[[[Amino(imino)methyl]amino]carbonyl]-1-methyl-4-(trifluoromethyl)-1H-indol-7-yl]ethanesulfonic Acid], for which the melting point is at least 300 °C.

As for `Cn1c(C(=O)NC(=N)N)cc2c(C(F)(F)F)ccc(OCCS(=O)(=O)O)c21` [Example 31, 2-[[2-[[[Amino(imino)methyl]amino]carbonyl]-1-methyl-4-(trifluoromethyl)-1H-indol-7-yl]oxy]-ethanesulfonic Acid], the melting point is 275 °C (dec.).

With `Cc1ccc(OS(=O)(=O)O)c2c1cc(C(=O)NC(=N)N)n2C` (as salt: sulfate) [Example 4, 2-[[[amino(imino)methyl]amino]-carbonyl]-1,4-dimethyl-1H-indol-7-yl Hydrogen Sulfate], the melting point was > 315 °C (dec.).

Turning to `Cn1c(C(=O)NC(=N)N)cc2c(Cl)ccc(CP(=O)(O)O)c21` [Example 18, [2-[[[Amino(imino)methyl]amino]carbonyl]-4-chloro-1-methyl-1H-indol-7-yl]methylphosphonic Acid], the melting point is 273 to 284 °C (dec.).

Consider `Cn1c(C(=O)NC(=N)N)cc2c(Cl)cc(OCC(=O)O)cc21` [Example 23, [[2-[[[Amino(imino)methyl]amino]carbonyl]-4-chloro-1-methyl-1H-indol-6-yl]oxy]acetic Acid], for which the melting point is 257 to 260 °C (dec.).

With `N=C(N)NC(=O)c1cc2c(Cl)cccc2n1CCCS(=O)(=O)O` [Example 27, 3-[2-[[[amino(imino)methyl]-amino]carbonyl]-4-chloro-1H-indol-1-yl]-1-propanesulfonic Acid], the melting point is 281 °C (dec.).

As for `Cc1cc(OS(=O)(=O)O)cc2c1cc(C(=O)NC(=N)N)n2C` (as salt: sulfate) [Example 2, 2-[[[Amino(imino)methyl]amino]carbonyl]-1,4-dimethyl-1H-indol-6-yl Hydrogen Sulfate], the melting point is 303 to 304 °C (dec.).

Take `Cn1c(C(=O)NC(=N)N)cc2c(Cl)ccc(OS(=O)(=O)O)c21` (as salt: sulfate) [Example 14, 2-[[[Amino(imino)methyl]amino]carbonyl]-4-chloro-1-methyl-1H-indol-7-yl Hydrogen Sulfate]: the melting point is 338 °C (dec.).

`Cn1c(C(=O)NC(=N)N)cc2ccc(OS(=O)(=O)O)cc21` (as salt: sulfate) [Example 7, 2-[[[Amino(imino)methyl]amino]carbonyl]-1-methyl-1H-indol-6-yl Hydrogen Sulfate]: the melting point was 283 to 284 °C (dec.).

As for `Cn1c(C(=O)NC(=N)N)cc2c(C(F)(F)F)cc(CCP(=O)(O)O)cc21` [Example 51, 2-[2-[[[amino(imino)methyl]-amino]carbonyl]-1-methyl-4-(trifluoromethyl)-1H-indol-6-yl]ethylphosphonic Acid], the melting point is 277 °C (dec.).

`Cn1c(C(=O)NC(=N)N)cc2c(C(F)(F)F)ccc(CS(=O)(=O)O)c21` [Example 38, [2-[[[Amino(imino)methyl]amino]carbonyl]-1-methyl-4-(trifluoromethyl)-1H-indol-7-yl]methanesulfonic Acid] registered a melting point of at least 300 °C.

Regarding `Cc1ccc(OCP(=O)(O)O)c2c1cc(C(=O)NC(=N)N)n2C` [Example 50, [[2-[[[Amino(imino)methyl]amino]carbonyl]-1,4-dimethyl-1H-indol-7-yl]oxy]methylphosphonic Acid], the melting point was 270 °C (dec.).
